Measured values: the supplement of paper PMC10307832

Experiments:
Assay in all cases: relative viability (nuclei count vs DMSO), 5 days (fraction); higher = more cells survive
[1] = system: NCI-H2023
In short: (§1)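 The day after seeding in 1536-well plates, lung cancer cell lines were treated by pin tool with a single drug, or with a fixed anchor-drug dose together with five library-drug doses (not always all listed) in √10 steps. After 5 days, a combined fix-and-stain solution (final 0.05% Triton X-100, 1% formaldehyde, 1 ug/ml Hoechst) was added. Nuclei counted on 4× images gave relative viability as treated counts over vehicle counts, reported as the median of duplicate plates.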

[2] = system: ChaGo-K-1
In short: as §1

[3] = system: NCI-H1944
In short: as §1

[4] = system: LC-2-ad
In short: as §1

[5] = system: NCI-H23
In short: as §1

[6] = system: HARA
In short: as §1

[7] = system: NCI-H1793
In short: as §1

[8] = system: NCI-H2126
In short: as §1

[9] = system: NCI-H2228
In short: as §1

[10] = system: NCI-H1993
In short: as §1

[11] = system: SK-LU-1
In short: as §1

[12] = system: HCC-15
In short: as §1

[13] = system: COR-L23
In short: as §1

[14] = system: HOP-62
In short: as §1

[15] = system: NCI-H1395
In short: as §1

[16] = system: HCC-366
In short: as §1

[17] = system: NCI-H2405
In short: as §1

[18] = system: NCI-H838
In short: as §1

[19] = system: EMC-BAC-2
In short: as §1

[20] = system: ABC-1
In short: as §1

[21] = system: HCC-78
In short: as §1

[22] = system: NCI-H358
In short: as §1

SMILES: O=c1cc(-c2cccc3c2Sc2ccccc2S3)oc(N2CCOCC2)c1 + CC(=O)c1c(C)c2cnc(Nc3ccc(N4CCNCC4)cn3)nc2n(C2CCCC2)c1=O [Palbociclib] (partner 0.5 µM)
- relative viability ([1]; first compound 0.08 µM): 0.379
- relative viability ([1]; first compound 0.253 µM): 0.407
- relative viability ([1]; first compound 0.8 µM): 0.407
- relative viability ([1]; first compound 2.53 µM): 0.369
- relative viability ([1]; first compound 8 µM): 0.291
- relative viability ([2]; first compound 0.08 µM): 0.942
- relative viability ([2]; first compound 0.253 µM): 1.12
- relative viability ([2]; first compound 0.8 µM): 0.842
- relative viability ([2]; first compound 2.53 µM): 0.899
- relative viability ([2]; first compound 8 µM): 1.09
- relative viability ([3]; first compound 0.08 µM): 0.313
- relative viability ([3]; first compound 0.253 µM): 0.329
- relative viability ([3]; first compound 0.8 µM): 0.302
- relative viability ([3]; first compound 2.53 µM): 0.335
- relative viability ([3]; first compound 8 µM): 0.318
- relative viability ([4]; first compound 0.08 µM): 0.513
- relative viability ([4]; first compound 0.253 µM): 0.51
- relative viability ([4]; first compound 0.8 µM): 0.469
- relative viability ([4]; first compound 2.53 µM): 0.502
- relative viability ([4]; first compound 8 µM): 0.425
- relative viability ([5]; first compound 0.08 µM): 0.57
- relative viability ([5]; first compound 0.253 µM): 0.485
- relative viability ([5]; first compound 0.8 µM): 0.498
- relative viability ([5]; first compound 2.53 µM): 0.451
- relative viability ([5]; first compound 8 µM): 0.451
- relative viability ([6]; first compound 0.08 µM): 0.253
- relative viability ([6]; first compound 0.253 µM): 0.201
- relative viability ([6]; first compound 0.8 µM): 0.241
- relative viability ([6]; first compound 2.53 µM): 0.209
- relative viability ([6]; first compound 8 µM): 0.266
- relative viability ([7]; first compound 0.08 µM): 0.21
- relative viability ([7]; first compound 0.253 µM): 0.308
- relative viability ([7]; first compound 0.8 µM): 0.311
- relative viability ([7]; first compound 2.53 µM): 0.257
- relative viability ([7]; first compound 8 µM): 0.273
- relative viability ([8]; first compound 0.08 µM): 0.393
- relative viability ([8]; first compound 0.253 µM): 0.361
- relative viability ([8]; first compound 0.8 µM): 0.357
- relative viability ([8]; first compound 2.53 µM): 0.358
- relative viability ([8]; first compound 8 µM): 0.357
- relative viability ([9]; first compound 0.08 µM): 0.766
- relative viability ([9]; first compound 0.253 µM): 0.766
- relative viability ([9]; first compound 0.8 µM): 0.901
- relative viability ([9]; first compound 2.53 µM): 0.608
- relative viability ([9]; first compound 8 µM): 0.758
- relative viability ([10]; first compound 0.08 µM): 0.632
- relative viability ([10]; first compound 0.253 µM): 0.674
- relative viability ([10]; first compound 0.8 µM): 0.526
- relative viability ([10]; first compound 2.53 µM): 0.599
- relative viability ([10]; first compound 8 µM): 0.709
- relative viability ([11]; first compound 0.08 µM): 0.397
- relative viability ([11]; first compound 0.253 µM): 0.354
- relative viability ([11]; first compound 0.8 µM): 0.418
- relative viability ([11]; first compound 2.53 µM): 0.327
- relative viability ([11]; first compound 8 µM): 0.368
- relative viability ([12]; first compound 0.08 µM): 0.796
- relative viability ([12]; first compound 0.253 µM): 0.778
- relative viability ([12]; first compound 0.8 µM): 0.79
- relative viability ([12]; first compound 2.53 µM): 0.695
- relative viability ([12]; first compound 8 µM): 0.636
- relative viability ([13]; first compound 0.08 µM): 0.291
- relative viability ([13]; first compound 0.253 µM): 0.307
- relative viability ([13]; first compound 0.8 µM): 0.393
- relative viability ([13]; first compound 2.53 µM): 0.334
- relative viability ([13]; first compound 8 µM): 0.34
- relative viability ([14]; first compound 0.08 µM): 0.465
- relative viability ([14]; first compound 0.253 µM): 0.391
- relative viability ([14]; first compound 0.8 µM): 0.497
- relative viability ([14]; first compound 2.53 µM): 0.512
- relative viability ([14]; first compound 8 µM): 0.54
- relative viability ([15]; first compound 0.08 µM): 0.62
- relative viability ([15]; first compound 0.253 µM): 0.539
- relative viability ([15]; first compound 0.8 µM): 0.568
- relative viability ([15]; first compound 2.53 µM): 0.574
- relative viability ([15]; first compound 8 µM): 0.638
- relative viability ([16]; first compound 0.08 µM): 0.436
- relative viability ([16]; first compound 0.253 µM): 0.349
- relative viability ([16]; first compound 0.8 µM): 0.487
- relative viability ([16]; first compound 2.53 µM): 0.401
- relative viability ([16]; first compound 8 µM): 0.51
- relative viability ([17]; first compound 0.08 µM): 0.523
- relative viability ([17]; first compound 0.253 µM): 0.534
- relative viability ([17]; first compound 0.8 µM): 0.55
- relative viability ([17]; first compound 2.53 µM): 0.491
- relative viability ([17]; first compound 8 µM): 0.503
- relative viability ([18]; first compound 0.08 µM): 0.187
- relative viability ([18]; first compound 0.253 µM): 0.265
- relative viability ([18]; first compound 0.8 µM): 0.202
- relative viability ([18]; first compound 2.53 µM): 0.212
- relative viability ([18]; first compound 8 µM): 0.222
- relative viability ([19]; first compound 0.08 µM): 0.511
- relative viability ([19]; first compound 0.253 µM): 0.529
- relative viability ([19]; first compound 0.8 µM): 0.536
- relative viability ([19]; first compound 2.53 µM): 0.538
- relative viability ([19]; first compound 8 µM): 0.543
- relative viability ([20]; first compound 0.08 µM): 1.04
- relative viability ([20]; first compound 0.253 µM): 0.836
- relative viability ([20]; first compound 0.8 µM): 0.474
- relative viability ([20]; first compound 2.53 µM): 0.767
- relative viability ([20]; first compound 8 µM): 0.674
- relative viability ([21]; first compound 0.08 µM): 0.506
- relative viability ([21]; first compound 0.253 µM): 0.458
- relative viability ([21]; first compound 0.8 µM): 0.427
- relative viability ([21]; first compound 2.53 µM): 0.417
- relative viability ([21]; first compound 8 µM): 0.487
- relative viability ([22]; first compound 0.08 µM): 0.135
- relative viability ([22]; first compound 0.253 µM): 0.144
- relative viability ([22]; first compound 0.8 µM): 0.13
- relative viability ([22]; first compound 2.53 µM): 0.134
- relative viability ([22]; first compound 8 µM): 0.152
